Measured values reported in US20100204115A1, “USE OF ACETYL- (ALA10, 11)-RANTES (1-14) AND/OR CALCITONIN AS ANTI-ANGIOGENIC AGENTS” (priority 2007, published 2010).

Columns and labels:
HCMV strain AD169 = experiment: HCMV plaque formation assay in MRC-5 cells; details: for inhibition of HCMV plaque formation as compared to the virus control experiment: 10 micrograms per ml, 7-10 days
[1] = system: hepatitis B virus (HBV) ayw strain; experiment: HBV experimental assay system, secreted HBV DNA by TaqMan PCR; type: cell-based; details: 10 micrograms per ml; HepG2-2.2.15, six days, HBV DNA in supernatant; combination 0.95 mole peptide 1 and 1.05 mole peptide 2
RAW 264.7 cells = experiment: Phagocytosis assay (Fluorescein-labeled Escherichia coli, flow cytometry); type: cell-based, mouse; details: 10 micrograms per ml
A549 cells = experiment: Apoptosis prevention assay (C2 ceramide, Annexin-5); type: cell-based, human; details: 10 micrograms per ml, 30 min pretreatment
TNF-a, spleen cells = experiment: Th1/Th2 cytokine profiling assay, TNF-a; type: cell-based, Balb/c mice; details: 10 micrograms per ml; Ovalbumin-restimulated spleen cells, 72 hours
Text: (§1) Th1/Th2 Cytokine Profiling Assay The Balb/c mice (originated in 1923, it is a popular strain and is used in many different research disciplines. […] On day 50, spleens of the mice were harvested (3 weeks after last boost with Ovalbumin). […] This kit can be used to measure Interleukin-2 (IL-2), Interleukin-4 (IL-4), Interleukin-5 (IL-5), Interferon-γ (IFN-γ), and Tumor Necrosis Factor-α (TNF-α) protein levels in a single sample. The kit performance has been optimized for analysis of physiologically relevant concentrations (pg/ml levels) of specific cytokine proteins in tissue culture supernatants and serum samples.

IFNγ, spleen cells = experiment: Th1/Th2 cytokine profiling assay, IFNγ; type: cell-based, Balb/c mice; details: 10 micrograms per ml; Ovalbumin-restimulated spleen cells, 72 hours
Text: as §1

IL-2, spleen cells = experiment: Th1/Th2 cytokine profiling assay, IL-2; type: cell-based, Balb/c mice; details: 10 micrograms per ml; Ovalbumin-restimulated spleen cells, 72 hours
Text: as §1

IL-4, spleen cells = experiment: Th1/Th2 cytokine profiling assay, IL-4; type: cell-based, Balb/c mice; details: 10 micrograms per ml; Ovalbumin-restimulated spleen cells, 72 hours
Text: as §1

IL-5, spleen cells = experiment: Th1/Th2 cytokine profiling assay, IL-5; type: cell-based, Balb/c mice; details: 10 micrograms per ml; Ovalbumin-restimulated spleen cells, 72 hours
Text: as §1

[2] = system: Primary Human endothelial cells (HUVEC); experiment: Endothelial cell migration assay; type: cell-based; details: 10 micrograms per ml, 22 hours
HUVEC = experiment: Endothelial tube formation assay; type: cell-based, human; details: 10 micrograms per ml, 20 hours, average tubule length, combination peptide 1:peptide 2 0.95 mole:1.05 mole
Method: The endothelial tube formation assay is based on the ability of endothelial cells to form three-dimensional capillary-like tubular structures when cultured on a gel of basement membrane extract. The endothelial tube formation assay represents a powerful model for studying inhibition and induction of angiogenesis. Pre-labeled HUVEC with Calcein AM were seeded in a 96-well culture plate coated with extracellular metrix (Chemicon international Cat. ECM625) and treated with test peptides—10 micrograms per ml—in full growth medium. Positive control was vehicle only. The endothelial cells were allowed to form tubes foe 20 hours and were then examined under an inverted fluorescent microscope. Duplicate wells for each treatment were photographed and quantitatively analyzed for an average tubule length using image analysis software ImageProPlus. Raw data were expressed as average tubule lenghs in pixels ±standard deviation. Statistic p values were computed using the Student's t-test.

HIV-1IIIB = experiment: HIV-1 antiviral assay in CEM-SS cells (MTS readout); details: positive controls

Nc1nc(O)c2ncn(COC(CO)CO)c2n1 [Ganciclovir, reference compound]
antiviral activity of positive control compound (HCMV strain AD169; HCMV AD169, positive control): expected levels of antiviral activity

Cys-Gly-Asn-Leu-Ser-Thr-Cys-Met-Leu-Gly-Thr-Tyr-Thr-Gln-Asp-Phe-Asn-Lys-Phe-His-Thr-Phe-Pro-Gln-Thr-Ala-Ile-Gly-Val-Gly-Ala-Pro-NH2 [peptide 2]
inhibition of HBV replication as compared to the virus control infection [1]: 31.0%
inhibitory or activating effects on the phagocytic activity of murine macrophages (RAW 264.7 cells; RAW 264.7, combination peptide 1:peptide 2 1.10 mole:0.90 mole): no inhibitory or activating effects on the phagocytic activity
reduction of the ceramide-induced apoptosis on human lung cells (A549 cells; combination 0.95 mole peptide 1 and 1.05 mole peptide 2): 32.7%
TNF-a spleen cells; TH1 response (% of control) (TNF-a, spleen cells): 116.4 % of control
IFNγ spleen cells; TH1 response (% of control) (IFNγ, spleen cells): 63.7 % of control
IL-2 spleen cells (% of control) (IL-2, spleen cells): 110.1 % of control
IL-4 spleen cells; TH2 response (% of control) (IL-4, spleen cells): 0.0 % of control
IL-5 spleen cells; TH2 response (% of control) (IL-5, spleen cells): 60.2 % of control
inhibition of the migration of human endothelial cells [2]: 26%
inhibition of the tube formation of endothelial cells (HUVEC): 18%
inhibition of HCMV plaque formation as compared to the virus control experiment (HCMV strain AD169): did not inhibit HCMV plaque formation

Ac-Ser-Pro-Tyr-Ser-Ser-Asp-Thr-Thr-Pro-Ala-Ala-Phe-Ala-Tyr-NH2 (Ac-SPYSSDTTPAAFAY-NH2) [peptide 1]
inhibition of HBV replication as compared to the virus control infection [1]: 40.7%
increase of the phagocytic activity of murine macrophages (RAW 264.7 cells; RAW 264.7, Fluorescein-labeled E. coli): 42.9%
increase of the ceramide-induced apoptosis on human lung cells (A549 cells): 13.2%
TNF-a spleen cells; TH1 response (% of control) (TNF-a, spleen cells): 107.4 % of control
IFNγ spleen cells; TH1 response (% of control) (IFNγ, spleen cells): 102.8 % of control
IL-2 spleen cells (% of control) (IL-2, spleen cells): 116.2 % of control
IL-4 spleen cells; TH2 response (% of control) (IL-4, spleen cells): 80.4 % of control
IL-5 spleen cells; TH2 response (% of control) (IL-5, spleen cells): 70.7 % of control
induction of the migration of human endothelial cells [2]: 11%
inhibition of the tube formation of endothelial cells (HUVEC): 26%
inhibition of HCMV plaque formation as compared to the virus control experiment (HCMV strain AD169): did not inhibit HCMV plaque formation

CC(C)(C)NC(=O)[C@@H]1CN(Cc2cccnc2)CCN1C[C@@H](O)C[C@@H](Cc1ccccc1)C(=O)N[C@H]1c2ccccc2C[C@H]1O [indinavir]
antiviral activity of positive control compounds (HIV-1IIIB): expected levels of antiviral activity

Cc1cn([C@H]2C[C@H](N=[N+]=[N-])[C@@H](CO)O2)c(=O)[nH]c1=O [AZT]
antiviral activity of positive control compounds (HIV-1IIIB): expected levels of antiviral activity
